Source: patent US20120028931A1, “HETEROCYCLIC M-GLU5 ANTAGONISTS” (RECORDATI IRELAND LIMITED, priority 2009, published 2012)

What was measured:
mGlu5 receptor = target: T1, mGlu5 receptor (Rattus norvegicus, UniProt P31424); test: Radioligand binding assay at metabotropic glutamate receptor 5 in rat brain ([3H]MPEP); details: rat forebrain membranes, 4 nM [3H]MPEP; Ki from IC50 by Cheng & Prusoff; read-out: affinity (Ki) for mGlu5 receptor
T1 construct: from tissue; host or cells: forebrain (cortex, striatum and hippocampus) membranes of male Sprague Dawley rats
T1 sequence (P31424 21-1203): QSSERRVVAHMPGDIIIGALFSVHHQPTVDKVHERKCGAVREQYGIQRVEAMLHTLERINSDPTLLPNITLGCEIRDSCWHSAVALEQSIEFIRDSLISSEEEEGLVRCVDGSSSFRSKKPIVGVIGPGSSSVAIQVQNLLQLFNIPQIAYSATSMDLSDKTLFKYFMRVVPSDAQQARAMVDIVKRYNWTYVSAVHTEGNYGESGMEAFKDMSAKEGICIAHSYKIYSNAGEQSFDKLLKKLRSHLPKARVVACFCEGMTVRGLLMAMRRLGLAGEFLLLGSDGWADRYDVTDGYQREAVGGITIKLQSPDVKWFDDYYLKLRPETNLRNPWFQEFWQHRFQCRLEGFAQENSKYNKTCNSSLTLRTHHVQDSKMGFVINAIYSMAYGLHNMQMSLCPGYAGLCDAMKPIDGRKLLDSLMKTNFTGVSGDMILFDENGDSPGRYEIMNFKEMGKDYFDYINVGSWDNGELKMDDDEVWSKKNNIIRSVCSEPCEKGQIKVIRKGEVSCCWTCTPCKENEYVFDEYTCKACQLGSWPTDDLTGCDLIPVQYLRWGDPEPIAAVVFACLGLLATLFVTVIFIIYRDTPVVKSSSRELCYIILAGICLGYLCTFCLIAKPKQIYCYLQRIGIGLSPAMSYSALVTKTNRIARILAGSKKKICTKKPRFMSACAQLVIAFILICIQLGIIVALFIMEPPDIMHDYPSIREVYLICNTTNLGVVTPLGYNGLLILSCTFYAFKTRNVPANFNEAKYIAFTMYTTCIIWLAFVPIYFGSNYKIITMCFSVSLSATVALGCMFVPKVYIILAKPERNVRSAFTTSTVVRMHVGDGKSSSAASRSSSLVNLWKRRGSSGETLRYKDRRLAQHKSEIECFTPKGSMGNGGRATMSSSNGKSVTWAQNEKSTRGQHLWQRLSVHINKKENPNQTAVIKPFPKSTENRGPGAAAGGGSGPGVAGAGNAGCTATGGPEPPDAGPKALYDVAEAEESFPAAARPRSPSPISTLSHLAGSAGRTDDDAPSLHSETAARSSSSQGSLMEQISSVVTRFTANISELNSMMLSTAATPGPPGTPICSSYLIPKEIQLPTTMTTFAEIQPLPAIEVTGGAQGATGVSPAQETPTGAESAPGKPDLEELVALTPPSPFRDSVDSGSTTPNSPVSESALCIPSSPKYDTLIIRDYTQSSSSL
Method: Radioligand Binding Assay at metabotropic glutamate receptor 5 in rat brain.
a) Membrane preparation: male Sprague Dawley rats (200-300 g, Charles River, Italy) were killed by cervical dislocation and the forebrain (cortex, striatum and hippocampus) was homogenized (2×20 sec) in 50 vols of cold 50 mM Tris buffer pH 7.4, using a Politron homogenizer (Kinematica). Homogenates were centrifuged at 48000×g for 15 min, resuspended in 50 vols of the same buffer, incubated at 37° C. for 15 min and centrifuged and resuspended two more times. The final pellets were frozen and stored at −80° C. until use.
b) Binding assay: pellets from rat forebrain were resuspended in 100 vols of 20 mM HEPES, 2 mM MgCl2, 2 mM CaCl2, pH 7.4. The membranes were incubated in a final volume of 1 ml for 60 min at 25° C. with 4 nM [^3H]MPEP in the absence or presence of competing drugs. Non-specific binding was determined in the presence of 10 μM MPEP (Spooren W. et al. Trends Pharmacol Sci. 22, 331-337, 2001). The incubation was stopped by the addition of cold Tris buffer pH 7.4 and rapid filtration through 0.5% polyethyleneimine pretreated Filtermat 1204-401 (Wallac) filters. The filters were then washed with cold buffer and the radioactivity retained on the filters was counted by liquid scintillation spectrometry. […]

conscious rats = test: Cystometry in conscious rats; format: in vivo, rat; details: administered orally
Method: Male Sprague-Dawley rats [Crl: CD® (SD) IGS BR] of 300-400 g b.w. supplied by Charles River Italia were used. The animals were housed with free access to food and water and maintained on a forced 12-hour-light/12-hour-dark cycle at 22-24° C. of temperature, except during the experiment. To quantify urodynamic parameters in conscious rats, cystometrographic studies were performed according to the procedure previously reported (Guarneri et al., Pharmacol. Res. 24: 175, 1991).
Briefly, the rats were anaesthetised by intraperitoneal administration of 3 ml/kg of Equithensin solution (pentobarbital 30 mg/kg and chloral hydrate 125 mg/kg) and placed in a supine position. […]
On the day of the experiment, the rats were placed in modified Bollman cages, i.e., restraining cages that were large enough to permit the rats to adopt a normal crouched posture, but narrow enough to prevent turning around. […] The intraluminal-pressure signal during infusion of saline into the bladder (cystometrogram) was continuously recorded on a polygraph (Rectigraph-8K San-ei with BM614/2 amplifier from Biomedica Mangoni) or stored on PC by data acquisition system (PowerLab, Chart 4 software, AD Instruments). From the cystometrogram, bladder volume capacity (BVC) was evaluated. […] Basal BVC value was evaluated as the mean of the values observed in the cystometrograms recorded in an initial period of 30-60 minutes. […]

Ki (mGlu5 receptor) | Compound | effect on bladder volume capacity (BVC) (conscious rats)
0.37 nM | Cc1ccc([N+](=O)[O-])c(N2CCC(=Cc3cc(-c4ccco4)n(C)n3)CC2)n1 [Example 1, 1-(6-methyl-3-nitro-2-pyridyl)-4-{[5-(2-furyl)-1-methyl-1H-pyrazol-3-yl]-methylene}-piperidine] | –
– | Cc1ccc([N+](=O)[O-])c(N2CCC(=Cc3noc(-c4cccs4)n3)CC2)n1 [Example 29, 1-(6-methyl-3-nitro-2-pyridyl)-4-{[5-(2-thienyl)-1,2,4-oxadiazol-3-yl]-methylene}-piperidine] | effective in increasing the bladder volume capacity
